From EP4629837B1, “ANIMAL FEED COMPOSITION HAVING A COMBINATION OF FENUGREEK AND NEOHESPERIDIN DIHYDROCHALCONE (NHDC) TO IMPROVE PERFORMANCE OF ANIMALS OR STIMULATE THEIR SWEET TASTE RECEPTORS” (ADM International Sàrl, priority 2022, dated 2024)
Where a SMILES comes first, the peptide text is derived from it.

Legend:
[1] = biological target: T1, pig sweet taste receptors (Sus scrofa, UniProt I1ZBR6+Q0EF93); test: Activation of heterologously expressed pig sweet taste receptors in HEK293T-PEAK rapid Gα15 cells (Fluo-4 AM Ca2+ fluorescence, dose-response); format: cell-based; details: single compounds and 1:4 combination, heterologous system of Example 1
Protocol: For the production of pig sweet taste receptor constructs, full length coding sequences of pig taste receptors T1R2 and T1R3 of pigs were synthesized and ligated into modified expression vectors pcDNA3/TO and pcDNA5/FRT/PM for evaluation. Amino-terminal sst-tags were added to facilitate cell membrane targeting, cytomegalovirus (CMV) promoters were added to control gene expression, and carboxylterminal FLAG or HSV tags were added to enable immunological detection of receptor subunits 1,2. […]
Functional expression of sweet taste receptors. The pig sweet taste receptor function was analyzed by transfecting the HEK293T-PEAK rapid Gα15 cells with taste receptor constructs described herein. […]
The transfected cells were analyzed with each of the sweeteners/compounds individually using a wide range of concentrations. The ligand binding and subsequent activation of the taste receptor causes an influx of Ca^2+ ions into the cell, which can be measured as an increase in fluorescent signaling using a microplate reader as shown in Figure 2.
The dose-response curves are calculated by using mean fluorescence values of multiple wells receiving the same concentration of sweetener/compound, and subtracting fluorescence changes of corresponding cells transfected with empty vector (ΔF). Signals are normalized to background fluorescence (ΔF/F). […]

[2] = biological target: T1, pig sweet taste receptors; details: Daly et al.; cited from earlier work
pig intestine = details: Daly et al.; cited from earlier work

T1 sequence (I1ZBR6 entry or part of it): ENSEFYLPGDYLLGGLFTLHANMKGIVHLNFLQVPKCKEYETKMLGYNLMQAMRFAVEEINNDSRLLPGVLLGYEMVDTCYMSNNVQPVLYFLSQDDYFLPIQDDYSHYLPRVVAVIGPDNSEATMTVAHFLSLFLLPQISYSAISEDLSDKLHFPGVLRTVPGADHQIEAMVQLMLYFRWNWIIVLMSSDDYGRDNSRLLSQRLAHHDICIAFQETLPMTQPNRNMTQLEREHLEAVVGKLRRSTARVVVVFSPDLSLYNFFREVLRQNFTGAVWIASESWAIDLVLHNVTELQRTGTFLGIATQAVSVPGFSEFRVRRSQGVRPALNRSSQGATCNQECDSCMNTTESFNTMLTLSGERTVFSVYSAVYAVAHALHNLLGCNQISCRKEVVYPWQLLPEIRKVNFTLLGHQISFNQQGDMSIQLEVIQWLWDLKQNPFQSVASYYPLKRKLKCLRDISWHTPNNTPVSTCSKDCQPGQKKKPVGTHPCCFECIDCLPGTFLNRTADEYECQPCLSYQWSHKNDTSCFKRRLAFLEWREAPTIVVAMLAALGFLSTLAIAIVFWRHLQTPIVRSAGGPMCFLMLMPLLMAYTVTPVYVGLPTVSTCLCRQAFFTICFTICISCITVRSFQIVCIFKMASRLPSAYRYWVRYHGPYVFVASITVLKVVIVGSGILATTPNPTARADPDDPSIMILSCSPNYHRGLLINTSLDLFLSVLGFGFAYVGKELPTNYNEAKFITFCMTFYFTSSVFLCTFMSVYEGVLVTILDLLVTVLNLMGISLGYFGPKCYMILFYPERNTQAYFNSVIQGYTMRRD
T1 sequence (Q0EF93 entry or part of it): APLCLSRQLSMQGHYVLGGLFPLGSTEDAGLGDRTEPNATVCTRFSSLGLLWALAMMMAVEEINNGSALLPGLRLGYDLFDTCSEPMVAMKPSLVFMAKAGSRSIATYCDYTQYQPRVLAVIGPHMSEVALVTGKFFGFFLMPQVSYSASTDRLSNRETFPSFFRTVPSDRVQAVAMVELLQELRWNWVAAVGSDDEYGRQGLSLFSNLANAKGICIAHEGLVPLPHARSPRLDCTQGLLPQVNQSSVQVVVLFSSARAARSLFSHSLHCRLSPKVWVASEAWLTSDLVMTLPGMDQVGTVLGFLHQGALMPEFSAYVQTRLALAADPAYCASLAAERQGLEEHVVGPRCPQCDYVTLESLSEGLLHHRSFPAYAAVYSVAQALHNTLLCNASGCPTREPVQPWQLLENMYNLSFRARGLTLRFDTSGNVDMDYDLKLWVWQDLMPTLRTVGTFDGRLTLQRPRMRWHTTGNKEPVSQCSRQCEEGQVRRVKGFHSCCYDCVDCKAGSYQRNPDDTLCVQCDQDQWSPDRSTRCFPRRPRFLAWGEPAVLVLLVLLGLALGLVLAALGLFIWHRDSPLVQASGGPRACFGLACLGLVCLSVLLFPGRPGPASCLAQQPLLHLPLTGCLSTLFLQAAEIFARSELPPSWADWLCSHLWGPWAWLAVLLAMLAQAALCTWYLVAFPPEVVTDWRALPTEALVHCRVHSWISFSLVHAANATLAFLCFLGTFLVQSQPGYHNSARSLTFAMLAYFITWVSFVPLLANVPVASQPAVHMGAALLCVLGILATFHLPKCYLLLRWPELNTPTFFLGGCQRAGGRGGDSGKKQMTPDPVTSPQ

Compound | In vitro EC50 (mg/ml) for pig sweet taste receptors [1] | activation of pig sweet taste receptors in vitro [2] | glucose uptake in the pig intestine (pig intestine)
COc1ccc(CCC(=O)c2c(O)cc(O[C@@H]3O[C@H](CO)[C@@H](O)[C@H](O)[C@H]3O[C@@H]3O[C@@H](C)[C@H](O)[C@@H](O)[C@H]3O)cc2O)cc1O [NHDC # 020D066, 1-(4-((2-O-[6-Deoxy-α-L-mannopyranosyl]-β-D-glucopyranosyl)oxy)-2,6-dihydroxyphenyl)-3-[3-hydroxy-4-methoxyphenyl]-1-poranone] | 0.62 mg/mL | – | –
COC(=O)[C@H](Cc1ccccc1)NC(=O)[C@@H](N)CC(=O)O [aspartame] (H-Asp-Phe-OMe) | – | do not activate pig sweet taste receptors in vitro | do not induce higher glucose uptake in the pig intestine
C=C1C[C@@]23CC[C@H]4[C@@](C)(CCC[C@@]4(C)C(=O)O[C@@H]4O[C@H](CO)[C@@H](O)[C@H](O)[C@H]4O)[C@@H]2CC[C@]1(O[C@@H]1O[C@H](CO)[C@@H](O)[C@H](O[C@@H]2O[C@H](CO)[C@@H](O)[C@H](O)[C@H]2O)[C@H]1O[C@@H]1O[C@H](CO)[C@@H](O)[C@H](O)[C@H]1O)C3 [Rebaudioside A] | 0.76 mg/mL | – | –
